Columns and labels:
[1] = system: vaccinia virus-specific CD8^+ CTL lines; format: cell-based, human
[2] = system: CD8^+ T cells in PBMCs of HLA-A0201-positive donors; format: cell-based, human

Sequence	recognition by CTL line [1]	specific recognition of epitope peptide by CTL line [1]	kinetics of the frequency of epitope-specific CD8^+ T cells: peak [2]	kinetics of the frequency of epitope-specific CD8^+ T cells: persistence [2]
LLYAHINAL [peptide 029D]	recognized			
KVDDTFYYV [peptide 165]	recognized	high level of specific recognition	peaked two weeks after primary immunization	still detectable one to three years following primary immunization
CLTEYILWV [peptide 74A]	recognized	high level of specific recognition	peaked two weeks after primary immunization	still detectable one to three years following primary immunization
TVADVRHCL [peptide B7080]	recognized			
MPAYIRNTL [peptide B7034]	recognized			
